Experimental data as given in article PMC6350621, “Small-molecules that covalently react with a human prolyl hydroxylase – towards activity modulation and substrate capture” (Chemical Communications (Cambridge, England), 2018).

Columns and labels:
[1] = molecular target: T1, PHD2 (Homo sapiens, UniProt Q9GZT9); assay: Denaturing ESI-MS of crosslinking with PHD2; format: binding
T1 construct: PHD2_181–426 (hereafter PHD2); His6 (N, cleaved yes); made in house; host or cells: bacterial culture (2x TY, kanamycin, IPTG)
Method: In contrast to the likely imine adducts formed with 1/2, the PHD2·Fe·3 covalent adduct was stable to the acidic conditions of denaturing MS. […] The crosslinking could be fitted by a one-site decay function (R^2 = 0.99, GraphPad Prism), consistent with a quasi intramolecular reaction of the PHD2·Fe·3 non-covalent species to give a covalent adduct (Fig. S5, ESI ^†).
Fig. S7 Time-course analysis of crosslinking between PHD2 and 3. PHD2 (20 µM) was incubated (37 °C, 4 h) with FeSO4 (20 µM) and 3 (30 µM). Samples were taken at regular intervals, quenched by acidification and the ratio of covalent crosslinking analysed by ESI-MS under denaturing conditions. Above: overlaid deconvoluted mass spectra; Below: variation of crosslinking with time. Data represent mean intensities of repeats (n=3), error bars show 1 standard […]
(§1) Fig. S8 Temperature dependence of the rate of crosslinking of 3 with PHD2. PHD2 (20 µM) was incubated with equimolar Fe(II) and 3 in buffer (50 mM Tris, 150 mM NaCl, pH 7.5) at 4, 20 and 37 °C. The ratio of crosslinking after 1, 2, and 4 h was determined by ESI-MS under denaturing conditions (n = 2), error bars represent 1 standard deviation.
Fig. S9 Ratio of crosslinked PHD2.3 before evaluation of catalytic activity.
100 μM. FeSO4·7H2O was dissolved in 20 mM HCl at a concentration of 100 mM. This solution was then diluted with MilliQ purified water to give a final working concentration of 100 μM. The protein was mixed with the Fe(II) solution and the inhibitor solution to give final concentrations of 20 μM PHD2, 20 μM Fe(II), and 20 μM inhibitor. The resultant solution was incubated for the appropriate time (specified in the text) at 37 […]
(5 min or 20 min) at 37 °C. After incubation, the samples were immediately analysed by ESI-MS.
1.1.2 Denaturing mass spectrometry
Intact protein masses were obtaine by liquid chromatography-mass spectrometry (LC-MS) using a Waters LCT premier XE time-of-flight mass spectrometer interfaced with a Waters 1525u HPLC pump and Waters […]
The protein sample (10 µM, 5 µl) was injected onto a Chromolith FastGradient RP-18 2x50mm Monolithic reverse phase HPLC column and eluted at 0.4 ml.min-1 using a gradient system from Solvent A (water, 0.1 % (v/v) formic acid) to Solvent B (acetonitrile, 0.1 % (v/v) formic acid) according to the following conditions:
Time (Min) %A %B Flow Rate (ml.min-1)
The eluent was transferred directly to the mass spectrometer. The following MS parameters were used:
Capillary voltage – 3,000 V; Sample cone voltage – 50 V; Extraction cone voltage – 1V; Desolvation temperature – 250 °C; Source temperature – 100 °C; Cone gas flow – 100 l.hour-1; Desolvation gas flow (N2) – 830 l.hour-1. Data were processed with MassLynx™ v4.0 (Waters) and protein peaks were deconvoluted using the Maximum Entropy method (MaxEnt1).
1.1.3 Analysis of protein activity by peptide turnover assay using MALDI-MS detection2 PHD2 (20 µM), Fe(II) (20 µM) and the inhibitor (30 µM) in buffer (15 mM ammonium acetate, pH 7.5) were incubated for the appropriate time (specified in the text) at 37 °C. Subsequently, the enzyme (1.5 µL, final […]
ascorbate (1 mM), 2-oxoglutarate (100 µM) and the respective inhibitor (30 µM) in buffer (50 mM Tris, 150 mM NaCl). In the positive control no inhibitor was added. The resultant mixture was incubated at 37 °C and samples ([…]) were taken at regular intervals and quenched by addition of 1% (v/v) aqueous formic acid ([…]). Samples were analysed using a MALDI micro MX mass spectrometer (Waters) in the reflectron positive ion mode. Data were processed using MassLynx v4.0. The yield of crosslinking was determined by comparison of the signal intensities for crosslinked and unmodified protein.
1.1.4 Analysis of protein activity by peptide turnover assay using the AlphaScreen™ 3 The assay consisted of three parts: pre-incubation with inhibitor, the PHD2 hydroxylation reaction, and incubation with the AlphaScreen™ bead mix.

[2] = molecular target: T2, PHD2_181–414 (Homo sapiens, UniProt Q9GZT9); assay: Non-denaturing ESI-MS crosslinking, 414 truncate; format: binding; settings: equimolar FeSO4 and compound, 3 h, 37 °C, 200 V
T2 construct: 414 (PHD2_181–414) truncated proteins; His6 (N, cleaved yes); made in house; host or cells: bacterial culture (2x TY, kanamycin, IPTG)
Method: (§2) The site of crosslinking of 3 was investigated using protein variants. First, 3 was incubated with C-terminal truncated PHD2 (PHD2_181–402) and a loop deletion variant (deletion of residues 238–250, PHD2Δ). […] Thus, 3 was incubated with PHD2 constructs truncated at residues 402, 410, 414 and 418. […] Crosslinking experiments with PHD2 R411M implied that R411 is not directly involved in crosslinking (Fig. S11, ESI ^†).
as §1
Fig. S9 Ratio of crosslinked PHD2.3 before evaluation of catalytic activity. Labelled peaks correspond to: (A): PHD2, […]
Fig. S10 Non-denaturing ESI-MS analysis of (a) PHD2 and its C-terminal truncations (b) PHD2181-418; (c) PHD2181-414;
(d) PHD2181-410; (e) PHD2181-402 in the presence of equimolar amounts of FeSO4 and 3 after 3 hours incubation at 37 °C in ammonium acetate (15 mM, pH 7.5) at a sample cone voltage of 200V. Peaks present: (A): PHD2.Fe; (B): PHD2181-

[3] = molecular target: T3, PHD2Δ (deletion of residues 238–250) (Homo sapiens, UniProt Q9GZT9, DEL238-250); assay: Non-denaturing ESI-MS crosslinking, loop deletion variant; format: binding; settings: equimolar Fe(II) and compound, 3 h, 37 °C, 200 V
T3 construct: PHD2_181–426 (hereafter PHD2); His6 (N, cleaved yes); made in house; host or cells: bacterial culture (2x TY, kanamycin, IPTG)
Method: as §2
Fig. 3 (A) Non-denaturing ESI-MS data on the flexible loop truncated (top) and C-terminal tail tuncated (bottom) versions of PHD2 in the presence of equimolar Fe(II) and 3 (3 hour incubation, 37 °C. Cone voltage: 200 V). A = [PHD2Δ + Fe], B = [PHD2Δ + Fe + 3], C = [PHD2_181–402 + Fe], D = [PHD2_181–402 + Fe + 3]. (B) MS/MS spectrum of the trypsin derived peptide 403[…]411 crosslinked to 3 identified K408 as the site of crosslinking.

[4] = test system: HIF-1α in HeLa cells; assay: HIF-1α levels in HeLa cells by anti-HIF-1α immunoblotting; settings: 50 or 250 µM, 6 h

T1 sequence (Q9GZT9 181-426): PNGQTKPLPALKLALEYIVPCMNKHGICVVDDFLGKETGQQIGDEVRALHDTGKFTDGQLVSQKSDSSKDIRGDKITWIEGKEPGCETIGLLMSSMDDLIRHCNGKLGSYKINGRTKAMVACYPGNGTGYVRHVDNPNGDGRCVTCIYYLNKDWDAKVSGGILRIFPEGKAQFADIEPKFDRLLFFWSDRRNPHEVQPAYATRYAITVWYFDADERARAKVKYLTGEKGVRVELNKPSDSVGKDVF
T3 sequence (Q9GZT9 with tags, fused parts or gaps DEL238-250): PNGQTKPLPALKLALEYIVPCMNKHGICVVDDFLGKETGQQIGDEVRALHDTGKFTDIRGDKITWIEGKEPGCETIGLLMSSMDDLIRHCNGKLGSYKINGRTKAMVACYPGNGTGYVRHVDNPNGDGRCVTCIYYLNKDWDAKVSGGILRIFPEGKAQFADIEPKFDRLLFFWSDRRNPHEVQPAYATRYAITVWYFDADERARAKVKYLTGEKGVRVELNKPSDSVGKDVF
T2 sequence (Q9GZT9 181-414): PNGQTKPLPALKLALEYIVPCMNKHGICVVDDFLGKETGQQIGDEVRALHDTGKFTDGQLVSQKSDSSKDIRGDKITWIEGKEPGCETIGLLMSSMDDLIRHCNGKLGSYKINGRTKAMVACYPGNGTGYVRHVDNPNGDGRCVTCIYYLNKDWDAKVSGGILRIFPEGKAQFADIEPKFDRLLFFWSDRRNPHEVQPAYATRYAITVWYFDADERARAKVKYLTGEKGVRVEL

conversion to crosslinked adduct at 4 °C ([1]; 4 °C): little conversion
extent of crosslinking, 0 h pre-incubation ([1]; PHD2 pre-incubated with compound 0 h): 0%
extent of crosslinking, 1 h pre-incubation ([1]; PHD2 pre-incubated with compound 1 h): 50%
extent of crosslinking, 2 h pre-incubation ([1]; PHD2 pre-incubated with compound 2 h): 66%
extent of crosslinking, 4 h pre-incubation ([1]; PHD2 pre-incubated with compound 4 h): 90%
conversion to crosslinked PHD2·Fe·3 after 3 h ([1]; timecourse, 37 °C, 3 h, PHD2 20 µM, FeSO4 20 µM, compound 30 µM): near complete conversion
covalent modification of 414 truncate [2]: covalently modified
crosslinking with loop truncate [3]: Crosslinking was maintained
SMILES: C=CC(=O)Nc1cccc(C(=O)NCC(=O)O)c1O [compound 3]
HIF-1α upregulation in HeLa cells [4]: no upregulation of HIF-1α
